Test results taken from patent US20100055169A1, “CATIONIC LIPIDS AND USES THEREOF” (ABBOTT LABORATORIES, priority 2008, published 2010).

What was measured:
Assay type in all cases: physicochemical
[1] = RiboGreen assay of siRNA encapsulation efficiency, in vitro formulations of Lipid-Based Particles; settings: in vitro formulation b: Cationic lipid/PEG-cholesterol/DSPC/Chol 45/10/15/30 wt %, lipid:siRNA 25:1
Protocol: The mixing solution of cationic lipids, cholesterol, non-cationic lipids and PEG-lipids was prepared in ethanol (total concentration at 10 mg/mL). siSTABLE (purchased from ThermoFisher) (sense-5′ GGGGAAAGCUGGCAAGAUUUU-3′SEQ ID NO. 1, antisense-5′-AAUCUUGCCAGCUUUCCCCUU-3′ SEQ ID NO: 2) % stock solution was prepared in 10 mg/mL of solution by dissolving 10 mg siRNA in 1 mL of RNAse-free UltraPure Water. The calculated amount of siRNA solution was added to 1 mL of citrate buffer (pH 4.0, 20 mM), to provide an siRNA concentration of 0.2 mg/mL, and warmed to 60 C. The calculated amount of lipid solution was warmed to 60 C, transferred to a 0.5 mL syringe with 28½ gauge needle, and injected into the citrate buffer with stirring at 60 C. After 3 minutes, 3 mL of PBS solution at room temperature (pH 7.4) was added into the lipid mixture with stirring. The Lipid-Based Particle solution was cooled to room temperature.
The siRNA concentrations were measured using Quanti-iT RiboGreen RNA reagent (Molecular Probes, (R11490)). Vesicle sizes were characterized by dynamic light scattering with a DynaPro™ Plate Reader (Wyatt Technology) in 96-well half-area UV plate (Coring) after diluting the formulation sample (20 μL) in phosphate buffered saline (80 μL) at a pH of about 7-8. A 1% agarose gel-based assay was used for analyzing nuclease degradation and protection. Encapsulation efficiency (EE) was calculated using data obtained from a RiboGreen assay.
(§1) RNA concentration and encapsulation efficiency were determined using a Quant-iT® Ribogreen RNA reagent and kit available from Invitrogen. The siRNA was released from the Lipid-Based Particle using one of the following reagents: ethanol, Triton X-100, or phenol/chloroform. The siRNA concentration is quantified using fluorescent reading at 480 nm/520 nm.

[2] = RiboGreen assay of siRNA encapsulation efficiency, in vivo formulations of Lipid-Based Particles; settings: in vivo formulation A: Cationic lipid/Example 73/DSPC/Chol 45/10/15/30 wt %, lipid:siRNA 25:1
Protocol: as §1
The lipid solution was prepared (10 mg/ml) by dissolving the lipid in 200 proof ethanol. The lipid mixture solution is prepared according to the above composition in Table 5.
An siRNA (TetR_ODC—12, G.G.G.G.A.A.A.G.C.U.G.G.C.A.A.G.A.U.U.U.U SEQ ID NO: 1) (ThermoFisher) solution is prepared in a concentration of 10 mg/ml by dissolving 10 mg siRNA in 1 ml of DNAse/RNAse-free distilled water.
(§2) A round bottom flask was submerged into a 65° C. water bath. Citrate buffer (37.5 ml) of pH 4.0 was pipetted into the flask. The solution was stirred by a magnetic stirring bar at a speed of 900 rpm. Both the pH 4.0 citrate buffer and the lipid solution were pre-warmed in the 65° C. water bath for about 3 minutes. A siRNA solution (0.5 ml) was pipetted into the pH 4.0 citrate buffer. The 12.5 ml lipid mixture solution was injected through a 27 gauge needle into the citrate buffer in about 30 seconds. The needle tip was inserted into the solution during the injection. The resulting solution was stirred for 5 minutes at a speed of 900 rpm. The flask was pulled up from the water bath and a 50 ml pH 7.4 PBS buffer was added into the flask. The final solution was further mixed at a speed of 900 rpm for 5 minutes. For the diafiltration process, a dialysis filter (Millipore, 100K, Cat#PXB100C50) was used to remove ethanol in the above solution. When the volume was reduced to 20 ml during the initial diafiltration, 20 ml of pH 7.4 PBS was added to the sample solution. The diafiltration was continued until the volume was reduced to 20 ml. The diafiltration process was repeated 4 times. The volume of the sample solution was reduced to about 12 ml and pH 7.4 PBS was added to make the final volume of 15 ml. The 15 ml solution was filtered sequentially through the 0.45 and 0.22 μm sterile PVDF membrane filters (Millipore) and immediately transferred into a sterile vial.

[3] = Particle sizing assay (Zetasizer Nano ZS), in vivo formulations; settings: in vivo formulation A: Cationic lipid/Example 73/DSPC/Chol 45/10/15/30 wt %, lipid:siRNA 25:1
Protocol: as §2
For measurements of particle sizes and size distributions (PDI), lipid-based particles were prepared as described above. The particle solution (60 μL) was pipetted into a disposable cuvette (UVette, Eppendorf, cat#952010051) and measured in the “General Purpose” mode. Attenuator and position were optimized by the device. Measurements were performed using a Zetasizer Nano ZS (Malvern Instruments) equipped with a 4 mW He—Ne laser at a wavelength of 633 nm at 25° C. Scattered light was detected at a 173° backward scattering angle. The viscosity and refractive index of water at 25° C. was used for data analysis with the Dispersion Technology Software 5.00 (Malvern Instruments).

% Encapsulation Efficiency [1] [%]	Molecule	other results
99	CCCCCCCC/C=C\CCCCCCCCOCC(CCN1CCCC1)OCCCCCCCC/C=C\CCCCCCCC (stereo not drawn) [Example 34, 1-{3,4-bis[(9Z)-octadec-9-enyloxy]butyl}pyrrolidine]	
99	CCCCC/C=C\C/C=C\CCCCCCCCOC[C@H](CCOC(=O)NCCCN1CCCC1)OCCCCCCCC/C=C\C/C=C\CCCCC [Example 36, (3S)-3,4-bis[(9Z,12Z)-octadeca-9,12-dienyloxy]butyl 3-pyrrolidin-1-ylpropylcarbamate]	
99	CCCCCC/C=C/CCCCCCCCOCC(CCN1CCCC1)OCCCCCCCC/C=C/CCCCCC (stereo not drawn) [Example 39, 1-{3,4-bis[(9E)-hexadec-9-enyloxy]butyl}pyrrolidine]	
97	CCCCCCCC/C=C/CCCCCCCCOCC(CCN1CCCC1)OCCCCCCCC/C=C/CCCCCCCC (stereo not drawn) [Example 40, 1-{3,4-bis[(9E)-octadec-9-enyloxy]butyl}pyrrolidine]	
99	CCCCC/C=C/C/C=C/CCCCCCCCOCC(CCN1CCCC1)OCCCCCCCC/C=C/C/C=C/CCCCC (stereo not drawn) [Example 41, 1-{3,4-bis[(9E,12E)-octadeca-9,12-dienyloxy]butyl}pyrrolidine]	
98	CCCCC/C=C\C/C=C\CCCCCCCCOCC(CCNCCCn1ccnc1)OCCCCCCCC/C=C\C/C=C\CCCCC (stereo not drawn) [Example 44, N-{3,4-bis[(9Z,12Z)-octadeca-9,12-dienyloxy]butyl}-N-[3-(1H-imidazol-1-yl)propyl]amine]	
99	CCCCC/C=C\C/C=C\CCCCCCCCOCC(CCN(C)CCCN(C)C)OCCCCCCCC/C=C\C/C=C\CCCCC (stereo not drawn) [Example 45, N-{3,4-bis[(9Z,12Z)-octadeca-9,12-dienyloxy]butyl}-N,N′,N′-trimethylpropane-1,3-diamine]	
98	CCCCC/C=C\C/C=C\CCCCCCCCOCC(CCN1CCC(n2ccnc2)C1)OCCCCCCCC/C=C\C/C=C\CCCCC (stereo not drawn) [Example 46, 1-(1-{3,4-bis[(9Z,12Z)-octadeca-9,12-dienyloxy]butyl}pyrrolidin-3-yl)-1H-imidazole]	
99	CCCCC/C=C\C/C=C\CCCCCCCCOCC(CCNCCCN1CCCC1)OCCCCCCCC/C=C\C/C=C\CCCCC (stereo not drawn) [Example 47, N-{3,4-bis[(9Z,12Z)-octadeca-9,12-dienyloxy]butyl}-N-(3-pyrrolidin-1-ylpropyl)amine]	
99	CCCCC/C=C\C/C=C\CCCCCCCCOCC(CCNCCCN(C)C)OCCCCCCCC/C=C\C/C=C\CCCCC (stereo not drawn) [Example 48, N-{3,4-bis[(9Z,12Z)-octadeca-9,12-dienyloxy]butyl}-N′,N′-dimethylpropane-1,3-diamine]	
99	CCCCC/C=C\C/C=C\CCCCCCCCOCC(CCN1CCC1)OCCCCCCCC/C=C\C/C=C\CCCCC (stereo not drawn) [Example 49, 1-{3,4-bis[(9Z,12Z)-octadeca-9,12-dienyloxy]butyl}azetidine]	
99	CCCCC/C=C\C/C=C\CCCCCCCCOCC(CCN1CCCC1C)OCCCCCCCC/C=C\C/C=C\CCCCC (stereo not drawn) [Example 50, 1-{3,4-bis[(9Z,12Z)-octadeca-9,12-dienyloxy]butyl}-2-methylpyrrolidine]	
99	CCCCC/C=C\C/C=C\CCCCCCCCOCC(CCN1C(C)CCC1C)OCCCCCCCC/C=C\C/C=C\CCCCC (stereo not drawn) [Example 51, 1-{3,4-bis[(9Z,12Z)-octadeca-9,12-dienyloxy]butyl}-2,5-dimethylpyrrolidine]	

Further lines, the molecule ahead of its results:

Molecule	% Encapsulation Efficiency [1] [%]	other results
1-[3,4-bis(hexadecyloxy)butyl]pyrrolidine [Example 38]	99	
CCCCC/C=C\C/C=C\CCCCCCCCOCC(CCN1CCOCC1)OCCCCCCCC/C=C\C/C=C\CCCCC (stereo not drawn) [Example 2, 4-{3,4-bis[(9Z,12Z)-octadeca-9,12-dienyloxy]butyl}morpholine]		% Encapsulation Efficiency [2]: 83.6%; Size [3]: 89 nm; Size distribution (PDI) [3]: (0.1)
CCCCC/C=C\C/C=C\CCCCCCCCOCC(CCOCCN(CC)CC)OCCCCCCCC/C=C\C/C=C\CCCCC (stereo not drawn) [Example 25, N-(2-{3,4-bis[(9Z,12Z)-octadeca-9,12-dienyloxy]butoxy}ethyl)-N,N-diethylamine]	96.1	
CCCCC/C=C\C/C=C\CCCCCCCCOCC(CCOCCC1CCCN1C)OCCCCCCCC/C=C\C/C=C\CCCCC (stereo not drawn) [Example 26, 2-(2-{3,4-bis[(9Z,12Z)-octadeca-9,12-dienyloxy]butoxy}ethyl)-1-methylpyrrolidine]	99.9	
CCCCC/C=C\C/C=C\CCCCCCCCOCC(CCOCCN1CC1)OCCCCCCCC/C=C\C/C=C\CCCCC (stereo not drawn) [Example 27, 1-(2-{3,4-bis[(9Z,12Z)-octadeca-9,12-dienyloxy]butoxy}ethyl)aziridine]	97	
CCCCC/C=C\C/C=C\CCCCCCCCOCC(CCOCCN(C)C)OCCCCCCCC/C=C\C/C=C\CCCCC (stereo not drawn) [Example 29, N-(2-{3,4-bis[(9Z,12Z)-octadeca-9,12-dienyloxy]butoxy}ethyl)-N,N-dimethylamine]	96.4	
CCCCC/C=C\C/C=C\CCCCCCCCC1(CCCCCCC/C=C\C/C=C\CCCCC)OCC(CCN(CC)CC)O1 (stereo not drawn) [Example 32, N,N-diethyl-N-(2-{2-[(8Z,11Z)-heptadeca-8,11-dienyl]-2-[(9Z,12Z)-octadeca-9,12-dienyl]-1,3-dioxolan-4-yl}ethyl)amine]	98.6	
CCCCCCCC/C=C\CCCCCCCC(=O)OCC(CCN1CCCC1)OC(=O)CCCCCCC/C=C\CCCCCCCC (stereo not drawn) [Example 33, 1-{[(9Z)-octadec-9-enoyloxy]methyl}-3-pyrrolidin-1-ylpropyl (9Z)-octadec-9-enoate]	99	
CCCCC/C=C\C/C=C\C/C=C\C/C=C\CCCC(=O)OCC(CCN1CCCC1)OC(=O)CCC/C=C\C/C=C\C/C=C\C/C=C\CCCCC (stereo not drawn) [Example 35, 1-{[(5Z,8Z,11Z,14Z)-icosa-5,8,11,14-tetraenoyloxy]methyl}-3-pyrrolidin-1-ylpropyl(5Z,8Z,11Z,14Z)-icosa-5,8,11,14-tetraenoate]	83.5	
CCCCCCCCCCCCCCCCCCOCC(CCN1CCCC1)OCCCCCCCCCCCCCCCCCC (stereo not drawn) [Example 37, 1-[3,4-bis(octadecyloxy)butyl]pyrrolidine]	98.5	
CC/C=C\C/C=C\C/C=C\CCCCCCCCOCC(CCN1CCCC1)OCCCCCCCC/C=C\C/C=C\C/C=C\CC (stereo not drawn) [Example 42, 1-{3,4-bis[(9Z,12Z,15Z)-octadeca-9,12,15-trienyloxy]butyl}pyrrolidine]	98	
CCCCC/C=C\C/C=C\CCCCCCCCOC[C@H](CCNC(=O)CCN(CC)CC)OCCCCCCCC/C=C\C/C=C\CCCCC [Example 43, N^1-{(3S)-3,4-bis[(9Z,12Z)-octadeca-9,12-dienyloxy]butyl}-N^3,N^3-diethyl-beta-alaninamide]	96.5	
